In brackets after ≈: the same amount, converted by molar mass. Like-named read-outs stand apart in the source and are kept apart here.

This note sets out measurements from patent US4284620A, “N-(2-Hydroxyethyl)-2,4,6-triiodo-3,5-bis-(2-keto-L-gulonamido)benzamide and radiological compositions containing same” (Mallinckrodt, Inc., priority 1979, dated 1981).

One data set is described as follows: Solubility in water. The format is physicochemical. As for the experimental part:
(§1) Nmr data are consistent with the assigned structure IX. The compound softens with darkening at 233°-238° and decomposes above 240°.
Elemental analysis; Calcd for C21 H26 I3 N3 O14 (after correction for 3.58% H2 O): C, 26.29; H, 3.13; I, 39.67; N, 4.38; Found: C, 26.20; H, 3.12; N, 4.09; I, not determined.

The nature of data set [1]: Stability in aqueous solution by tlc and lc analysis. It counts as physicochemical. As for the experimental part: as §1
For data set [2], the system named is vascular and urinary systems. Description: Radiographic visualization in mouse after intravenous injection. The format is in vivo. The conditions noted are these: I.V. The protocol: A female mouse (19 g) was anesthetized with sodium pentobarbital (60 mg/kg, i/p.).
A further data set relates to subarachnoid space. The data set is described as follows: Radiographic visualization in rat after intracisternal injection. The format is in vivo. The conditions noted are these: 175 mg I/kg (37% I solution) intracisternally, 10 seconds after administration. As for the experimental part: A pentobarbital-anesthetized rat (233 gm) received 175 mg I/kg (37% I solution) of the compound intracisternally.

A short description of data set [3]: in vivo. As to conditions: mouse, in vivo, iv. As for the experimental part:
(§2) The following pharmacological studies were run on the N-(2-hydroxyethyl)-2,4,6-triiodo-3,5-bis-(2-keto-L-gulonamido)benzamide prepared according to Method B (PRODUCT).
(§3) A solution of the PRODUCT was injected into the lateral tail vein of yound adult male and female Swiss mice at a rate of 1 ml/min.

For data set [4], the system named is Swiss mice. The data set is described as follows: Acute Intravenous Toxicity in Mice. As to conditions: mice, intravenous, 400 mg I/ml, 1 ml/min, seven day observation; 95% confidence limits 16,499-20,075. The protocol:
as §2, §3

A short description of data set [5]: in vivo. The conditions noted are these: mouse, in vivo.
From the text: as §2
(§4) Employing a slightly modified version of the technique developed by Haley and McCormick (Brit. J. Pharmacol. 12: 12-15, 1957), young adult male and female Swiss mice received injections of a solution of the PRODUCT directly into lateral ventricles and brain tissue.

In data set [6] the test system is Swiss mice. Description: Acute Intracerebral Toxicity in Mice. The conditions noted are these: mice, intracerebral, 350-450 mg I/ml, seven day observation; 95% confidence limits 560-4806.
From the text: as §2, §4

Data set [7] can be described thus: in vivo. The conditions noted are these: rat, in vivo.
From the text: as §2
(§5) A variation of the technique described by Melartin et al. (Invest. Radiol. 5: 13-21, 1970) was utilized to evaluate lethal effects of a solution of the PRODUCT after injection into cerebrospinal fluid at the cisterna magna. Young adult male and female Sprague Dawley rats were used. After dosing, the animals were housed individually and observed for immediate reactions and periodically for a two day observation period.

Another data set relates to Sprague Dawley rats. Description: Acute Intracisternal Toxicity in Rats. The conditions noted are these: rats, intracisternal, 400 mg I/ml, two day observation; 95% confidence limits 462-655.
From the text: as §2, §5

The nature of data set [8]: Acute Intracisternal Neurotoxicity in Dogs. The conditions noted are these: dog, in vivo; dogs, intracisternal, 244 mg I/kg; read-out: Respiratory arrest (death). As for the experimental part:
(§6) Adult dogs of either sex were employed for this procedure and were briefly anesthetized with thiopentol sodium during the injection of a solution of the PRODUCT. The compound was administered into cerebrospinal fluid at the cisterna magna at varying concentrations but at a constant 0.5 ml/kg volume dose. Animals were thereafter observed for neurotoxicity with the following results: […]

For another data set, the system named is dogs. The data set is described as follows: Acute Intracisternal Neurotoxicity in Dogs. The conditions noted are these: dog, in vivo. As for the experimental part: as §6

Consider `O=C(Nc1c(I)c(NC(=O)C(=O)[C@@H](O)[C@H](O)[C@@H](O)CO)c(I)c(C(=O)NCCO)c1I)C(=O)[C@@H](O)[C@H](O)[C@@H](O)CO` [IX, N-(2-Hydroxyethyl)-2,4,6-triiodo-3,5-bis-(2-keto-L-gulonamido)benzamide], for which the solubility is not below 1000 mg/mL in the data set “Solubility in water” (Method A product, read-out: highly water soluble) and 1000 mg/mL (≈ 1080 mM) in the data set “Solubility in water” (Method B product, read-out: solubility). Also, in data set [1], the “stable in aqueous solution” value is “stable in aqueous solution”. The “visualization of the vascular system, whole body left lateral radiograph” value in [2] (female mouse, 10,000 mg I/kg (37% I solution), 5 seconds after administration) is reported as “good visualization of the vascular system”. Further, the “images of the vascular system, posteroanterior radiograph” value in data set [2] (mouse, 30 seconds after contrast administration) is listed as “good images of the vascular”. Also, the “images of the urinary system, posteroanterior radiograph” value in data set [2] (mouse, 5 minutes after contrast administration) is “good images of the vascular and urinary systems”. The “visualization of the subarachnoid space in the upper cervical, cisternal and basal cistern regions” value with subarachnoid space was “good visualization of the subarachnoid space”. Besides, the LD50 at 168 h was determined as 44200 mg/kg in “in vivo [3]” and 3980 mg/kg in “in vivo [5]”. Further, the LD50 is given as 18,200 mg I/kg in the data set with Swiss mice [4], 1,640 mg I/kg with Swiss mice [6] and 550 mg I/kg with Sprague Dawley rats. The compound further displayed an LD50 at 48 h in “in vivo [7]” of 1340 mg/kg. Moreover, the mortality in [8] stood at 50%. Further, the “Minimum Convulsion Dose” value in the data set on dogs is on record as more than 244 mg I/kg.
